Test results taken from US12503617B2, “Ink jet ink composition and recording method” (SEIKO EPSON CORPORATION, priority 2022, dated 2025).

Test: Solubility in 100 g of water at 20° C.

CC(CO)(CO)CO [trimethylolethane]
solubility: approximately 60 g/100 g of water
